Biological target: P70S6K (T412E mutant) (Homo sapiens (Human), UniProt P23443, T412E)
Experiment: P70S6K enzyme assay
Assay type: biochemical
Conditions: 3 nM P70S6K T412E mutant, 24 μM ATP, 1 μM FITC-AHA-AKRRRLSSLRA-OH substrate peptide, 90 min at 25° C.
Description: The IC50 values reported for the compounds in the Experimental section were derived from the following protocol for the p70S6K enzyme assay.
P70S6K inhibitor compounds were diluted and plated in 96 well plates. A reaction mixture including the following components was then added to the compound plate to initiate the enzyme reaction; P70S6K (3 nM, T412E mutant, Millipore) was mixed with 24 μM ATP in an assay buffer containing 100 mM Hepes (pH 7.5), 5 mM MgCl2, 1 mM DTT, 0.015% Brij and 1 μM of the substrate peptide FITC-AHA-AKRRRLSSLRA-OH (derived from the S6 ribosomal protein sequence, FITC=fluorescein isothiocyanate, AHA=6-aminohexanoic acid). The reaction was incubated for 90 min at 25° C., before the addition of 10 mM EDTA to stop the reaction. The proportion of substrate and product (phosphorylated) peptide was analysed on a Caliper Life Sciences Lab Chip 3000, using a pressure of −1.4 psi, and upstream and downstream voltages of −3000 and −700 respectively. Product peaks were resolved before substrate peaks on the resulting chromatograms.

Sequence of P70S6K (T412E mutant) (P23443 whole entry T412E): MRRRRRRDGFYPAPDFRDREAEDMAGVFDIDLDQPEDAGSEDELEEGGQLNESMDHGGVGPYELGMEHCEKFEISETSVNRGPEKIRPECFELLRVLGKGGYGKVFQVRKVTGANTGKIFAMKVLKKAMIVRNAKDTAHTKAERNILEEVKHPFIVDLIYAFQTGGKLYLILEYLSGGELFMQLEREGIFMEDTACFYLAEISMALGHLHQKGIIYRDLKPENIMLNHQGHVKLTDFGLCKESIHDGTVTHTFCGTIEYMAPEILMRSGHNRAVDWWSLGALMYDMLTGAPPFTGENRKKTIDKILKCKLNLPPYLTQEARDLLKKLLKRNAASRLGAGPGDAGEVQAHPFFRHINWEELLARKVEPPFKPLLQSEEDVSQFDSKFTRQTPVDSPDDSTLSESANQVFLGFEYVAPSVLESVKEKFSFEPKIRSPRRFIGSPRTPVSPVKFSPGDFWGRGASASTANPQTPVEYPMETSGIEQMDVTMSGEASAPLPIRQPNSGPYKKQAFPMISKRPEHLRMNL

| SMILES | IC50 [µM] |
| --- | --- |
| NC[C@H](c1ccc(C(F)(F)F)cc1)N1CCN(c2ncnc(N)c2-c2cn[nH]c2)CC1 [Example 8, (S)-6-(4-(2-amino-1-(4-(trifluoromethyl)phenyl)ethyl)piperazin-1-yl)-5-(1H-pyrazol-4-yl)pyrimidin-4-amine] | 0.0034 |
| NC[C@@H](c1ccc(C(F)(F)F)cc1)N1CCN(c2ncnc(N)c2-c2cn[nH]c2)CC1 [Example 9, (R)-6-(4-(2-amino-1-(4-(trifluoromethyl)phenyl)ethyl)piperazin-1-yl)-5-(1H-pyrazol-4-yl)pyrimidin-4-amine] | 0.0057 |
| Nc1ncnc(N2CCN(C(CN3CCCC3)c3ccc(C(F)(F)F)cc3)CC2)c1-c1ccc(F)cc1 (centres unmarked) [Example 10, 5-(4-fluorophenyl)-6-(4-(2-(pyrrolidin-1-yl)-1-(4-(trifluoromethyl)-phenyl)-ethyl)-piperazin-1-yl)-pyrimidin-4-amine] | 0.031 |
| Nc1ncnc(N2CCN(C(CN3CCCCC3)c3ccc(C(F)(F)F)cc3)CC2)c1Br (centres unmarked) [Example 11, 5-bromo-6-(4-(2-(piperidin-1-yl)-1-(4-(trifluoromethyl)phenyl)ethyl)piperazin-1-yl)pyrimidin-4-amine] | 0.28 |
| Nc1ncnc(N2CCN(C(CN3CCCCC3)c3ccc(C(F)(F)F)cc3)CC2)c1-c1ccc(F)cc1 (centres unmarked) [Example 12, 5-(4-Fluoro-phenyl)-6-{4-[2-piperidin-1-yl-1-(4-trifluoromethyl-phenyl)-ethyl]-piperazin-1-yl}-pyrimidin-4-ylamine] | 0.018 |
| Nc1ncnc(N2CCN(Cc3ccc(C(F)(F)F)cc3)CC2)c1-c1ccc(F)cc1 [Example 13, 5-(4-Fluoro-phenyl)-6-[4-(4-trifluoromethyl-benzyl)-piperazin-1-yl]-pyrimidin-4-ylamine] | 0.0072 |
| CN(C)CC(c1ccc(C(F)(F)F)cc1)N1CCN(c2ncnc(N)c2Br)CC1 (centres unmarked) [Example 14, 5-bromo-6-(4-(2-(dimethylamino)-1-(4-(trifluoromethyl)phenyl)ethyl)piperazin-1-yl)pyrimidin-4-amine] | 0.038 |
| CN(C)CC(c1ccc(C(F)(F)F)cc1)N1CCN(c2ncnc(N)c2-c2ccc(F)cc2)CC1 (centres unmarked) [Example 15, 6-(4-(2-(dimethylamino)-1-(4-(trifluoromethyl)phenyl)ethyl)piperazin-1-yl)-5-(4-fluorophenyl)pyrimidin-4-amine] | 0.0049 |
| CN(C)C[C@H](c1ccc(C(F)(F)F)cc1)N1CCN(c2ncnc(N)c2-c2ccc(F)cc2)CC1 [Example 16, (S)-6-(4-(2-(dimethylamino)-1-(4-(trifluoromethyl)phenyl)ethyl)piperazin-1-yl)-5-(4-fluorophenyl)pyrimidin-4-amine] | 0.0049 |
| CN(C)C[C@@H](c1ccc(C(F)(F)F)cc1)N1CCN(c2ncnc(N)c2-c2ccc(F)cc2)CC1 [Example 17, (R)-6-(4-(2-(dimethylamino)-1-(4-(trifluoromethyl)phenyl)ethyl)piperazin-1-yl)-5-(4-fluorophenyl)pyrimidin-4-amine] | 0.0017 |
| CN(C)CCNC(=O)C(c1ccc(C(F)(F)F)cc1)N1CCN(c2ncnc(N)c2-c2ccc(F)cc2)CC1 (centres unmarked) [Example 18, 2-(4-(6-amino-5-(4-fluorophenyl)pyrimidin-4-yl)piperazin-1-yl)-N-(2-(dimethylamino)ethyl)-2-(4-(trifluoromethyl)phenyl)acetamide] | 0.018 |
| C=Cc1c(N)ncnc1N1CCN(C(CN)c2ccc(C(F)(F)F)cc2)CC1 (centres unmarked) [Example 19, 6-(4-(2-amino-1-(4-(trifluoromethyl)-phenyl)ethyl)piperazin-1-yl)-5-vinylpyrimidin-4-amine] | 0.019 |
| CN(C)CC(c1ccc(C(F)(F)F)cc1)N1CCN(c2ncnc(N)c2-c2ccc(N)nc2)CC1 (centres unmarked) [Example 20, 5-(6-aminopyridin-3-yl)-6-(4-(2-(dimethylamino)-1-(4-(trifluoromethyl)-phenyl)ethyl)piperazin-1-yl)pyrimidin-4-amine] | 0.069 |
| C=Cc1c(N)ncnc1N1CCN(C(CN(C)C)c2ccc(C(F)(F)F)cc2)CC1 (centres unmarked) [Example 21, 6-(4-(2-(dimethylamino)-1-(4-(trifluoromethyl)phenyl)ethyl)piperazin-1-yl)-5-vinylpyrimidin-4-amine] | 0.035 |
| CN(C)CC(c1ccc(C(F)(F)F)cc1)N1CCN(c2ncnc(N)c2-c2ccc(C(C)(C)O)cc2)CC1 (centres unmarked) [Example 22, 2-(4-(4-amino-6-(4-(2-(dimethylamino)-1-(4-(trifluoromethyl)phenyl)ethyl)-piperazin-1-yl)pyrimidin-5-yl)phenyl)propan-2-ol] | 0.02 |
| COC(=O)c1ccc(-c2c(N)ncnc2N2CCN(C(CN(C)C)c3ccc(C(F)(F)F)cc3)CC2)cc1 (centres unmarked) [Example 23, Methyl 4-(4-amino-6-(4-(2-(dimethylamino)-1-(4-(trifluoromethyl)phenyl)ethyl)piperazin-1-yl)pyrimidin-5-yl)benzoate] | 0.012 |

| SMILES | IC50 [µM] |
| --- | --- |
| NCC(c1ccc(C(F)(F)F)cc1)N1CCN(c2ncnc(N)c2C2=CCCCC2)CC1 (centres unmarked) [Example 24, 6-(4-(2-amino-1-(4-(trifluoromethyl)phenyl)ethyl)piperazin-1-yl)-5-(cyclohex-1-en-1-yl)pyrimidin-4-amine] | 0.0053 |
| NCC(c1ccc(C(F)(F)F)cc1)N1CCN(c2ncnc(N)c2C2=CCCC2)CC1 (centres unmarked) [Example 25, 6-(4-(2-amino-1-(4-(trifluoromethyl)phenyl)ethyl)piperazin-1-yl)-5-(cyclopent-1-en-1-yl)pyrimidin-4-amine] | 0.0034 |
| CN(C)CC(c1ccc(C(F)(F)F)cc1)N1CCN(c2ncnc(N)c2-c2ccc(C(=O)O)cc2)CC1 (centres unmarked) [Example 26, 4-(4-amino-6-(4-(2-(dimethylamino)-1-(4-(trifluoromethyl)phenyl)ethyl)piperazin-1-yl)pyrimidin-5-yl)benzoic acid] | 0.045 |
| Nc1ncnc(N2CCN(C(CN3CCC3)c3ccc(C(F)(F)F)cc3)CC2)c1-c1ccc(F)cc1 (centres unmarked) [Example 27, 6-(4-(2-(azetidin-1-yl)-1-(4-(trifluoromethyl)phenyl)ethyl)piperazin-1-yl)-5-(4-fluorophenyl)pyrimidin-4-amine] | 0.0042 |
| CN(C)CC(c1ccc(C(F)(F)F)cc1)N1CCN(c2ncnc(N)c2C2CC2)CC1 (centres unmarked) [Example 28, 5-Cyclopropyl-6-(4-(2-(dimethylamino)-1-(4-(trifluoromethyl)phenyl)ethyl)piperazin-1-yl)pyrimidin-4-amine] | 0.26 |
| Cn1ccnc1C(c1ccccc1)N1CCN(c2ncnc(N)c2Br)CC1 (centres unmarked) [Example 29, 5-Bromo-6-{4-[(1-methyl-1H-imidazol-2-yl)-phenyl-methyl]-piperazin-1-yl}-pyrimidin-4-ylamine] | > 1 |
| Cn1ccnc1C(c1ccccc1)N1CCN(c2ncnc(N)c2-c2ccc(F)cc2)CC1 (centres unmarked) [Example 30, 5-(4-Fluoro-phenyl)-6-{4-[(1-methyl-1H-imidazol-2-yl)-phenyl-methyl]-piperazin-1-yl}-pyrimidin-4-ylamine] | 0.0345 |
| COc1c(N)ncnc1N1CCN(C(CN)c2ccc(C(F)(F)F)cc2)CC1 (centres unmarked) [Example 31, 6-(4-(2-amino-1-(4-(trifluoromethyl)phenyl)ethyl)piperazin-1-yl)-5-methoxypyrimidin-4-amine] | 0.04 |
| CCOc1c(N)ncnc1N1CCN(C(CN)c2ccc(C(F)(F)F)cc2)CC1 (centres unmarked) [Example 32, 6-(4-(2-amino-1-(4-(trifluoromethyl)phenyl)ethyl)piperazin-1-yl)-5-ethoxypyrimidin-4-amine] | 0.0485 |
| NCC(c1ccc(C(F)(F)F)cc1)N1CCN(c2ncnc(N)c2OCC(F)(F)F)CC1 (centres unmarked) [Example 33, 6-(4-(2-amino-1-(4-(trifluoromethyl)phenyl)ethyl)piperazin-1-yl)-5-(2,2,2-trifluoroethoxy)pyrimidin-4-amine] | 0.0485 |
| NCC(c1ccc(C(F)(F)F)cc1)N1CCN(c2ncnc(N)c2OCc2ccccc2)CC1 (centres unmarked) [Example 34, 6-(4-(2-amino-1-(4-(trifluoromethyl)phenyl)ethyl)piperazin-1-yl)-5-(benzyloxy)pyrimidin-4-amine] | 0.057 |
| NCC(c1ccc(C(F)(F)F)cc1)N1CCN(c2ncnc(N)c2O)CC1 (centres unmarked) [Example 35, 4-amino-6-(4-(2-amino-1-(4-(trifluoromethyl)phenyl)ethyl)piperazin-1-yl) pyrimidin-5-ol] | > 1 |
| N#Cc1c(N)ncnc1N1CCN(C(CN)c2ccc(C(F)(F)F)cc2)CC1 (centres unmarked) [Example 36, 4-Amino-6-{4-[2-amino-1-(4-trifluoromethyl-phenyl)-ethyl]-piperazin-1-yl}-pyrimidine-5-carbonitrile] | 0.014 |
| NCC(c1ccc(C(F)(F)F)cc1)N1CCN(c2ncnc(N)c2-c2cc[nH]c2)CC1 (centres unmarked) [Example 37, 6-(4-(2-amino-1-(4-(trifluoromethyl)phenyl)ethyl)piperazin-1-yl)-5-(1H-pyrrol-3-yl)pyrimidin-4-amine] | 0.0058 |
| NCC(c1ccc(C(F)(F)F)cc1)N1CCN(c2ncnc(N)c2-c2cnoc2)CC1 (centres unmarked) [Example 38, 6-(4-(2-amino-1-(4-(trifluoromethyl)phenyl)ethyl)piperazin-1-yl)-5-(isoxazol-4-yl)pyrimidin-4-amine] | 0.1 |
| CCn1cc(-c2c(N)ncnc2N2CCN(C(CN)c3ccc(C(F)(F)F)cc3)CC2)cn1 (centres unmarked) [Example 39, 6-(4-(2-amino-1-(4-(trifluoromethyl)phenyl)ethyl)piperazin-1-yl)-5-(1-ethyl-1H-pyrazol-4-yl)pyrimidin-4-amine] | 0.012 |
